# Assays:
# mature SREBP-1c = assay: Hepatic nuclear mature SREBP-1c protein level in PDK inhibitor-treated DIO mice; format: in vivo; settings: 40 mg/kg/day by mini-pumps for 5 days
# PDC [1] = assay: PDC flux in perfused hearts from DIO mice by hyperpolarized 13C NMR; settings: single dose 70 mg/kg IP, 8-hr
# Method: Metabolism of [1-^13C]pyruvate to [1-^13C]alanine, [1-^13C]lactate, H^13CO3^− and ^13CO2 were detected in real time by ^13C NMR spectra, following the injection of 2 mM HP [1-^13C]pyruvate into perfused heart (FIG. 10A).
# PDK3 = PDK3 (Homo sapiens, UniProt Q15120); assay: Assay for inhibition of PDK activity, PDK3; format: biochemical; design: made in house; settings: absence of E2/E3BP core (−)
# Method: (§1) Recombinant human PDK2 was expressed and purified as a N terminal His6-tagged SUMO fusion protein with a tobacco-etch-virus protease (TEV) cleavage site in front of the N-terminal PDK2 sequence (26), and was used directly for the activity assay and binding affinity analyses. For crystallization, the protein was subjected to a TEV-protease digestion, and the untagged PDK2 protein was purified on a Superdex 200 column in 20 mM Tris-HCl (pH 8.0), 150 mM NaCl and 5 mM DTT. The purified protein was concentrated to 35-40 mg/ml and stored at −80° C. in small aliquots. Recombinant human PDK1, PDK3 and PDK4 were expressed and purified as described previously (26).
# . The remaining steps were described previously (26). IC50 values were obtained by the curve fitting of inhibition isotherms using Prism 6 (GraphPad software, Inc.).
# PDC [2] = assay: Assay for PDC activity in tissues of treated DIO mice; format: in vivo; settings: single dose 70 mg/kg IP, 10 h
# Method: Six- to eight-week old C57BL/6J male mice were obtained from the local campus breeding colony at UT Southwestern Medical Center (Dallas, Tex.) and randomized into two groups: vehicle- and PS10-treated. Prior to the treatment, mice were fed with a 60% high-fat diet, which contained 32% saturated and 68% unsaturated fat (catalog number: D12492, Research Diet Inc. New Brunswick, N.J.), for eight to ten weeks to produce DIO animals. PS-10 was dissolved in 100% DMSO and then diluted to make a 10% DMSO aqueous solution containing 17.5% (w/v) (2-hydroxypropyl)-β-cyclodextrin for delivery. Animals were dosed at mid-day by intraperitoneal (IP) injections at 70 mg/kg using 1-ml syringe and 30-gauge needle. The length of the treatment is indicted in each experiment. At 10 h after the last injection, animals were euthanized using carbon dioxide asphyxiation followed by cervical dislocation and dissection. Blood was harvested by cardiac puncture and stored on ice. Acidified citrate dextrose (ACD) was used as an anticoagulant. Immediately after blood collection, heart, liver, kidneys and both hind-leg quadriceps muscles were removed and snap frozen in liquid nitrogen. Average ischemia time before organ harvest was about 2 to 3 min. Blood was centrifuged in an Eppendorf 5415R refrigerated microcentrifuge at 9,300×g for 5 min to isolate plasma, which was subsequently stored at −80° C.
# Liquid nitrogen-stored tissue samples were removed and thawed on ice. Individual kidneys (200-250 mg), hearts (200-300 mg), muscle (200-300 mg) and liver (250-400 mg) tissues samples were manually homogenized in an ice-chilled glass homogenizer containing 1 ml of the homogenization buffer. The homogenization buffer contained 30 mM KPi, pH 7.5, 3 mM EDTA, 5 mM DTT, 1 mM benzamidine, 3% fetal bovine serum, 5% Triton X-100 and 1 mM leupeptin. Samples were transferred to ice-cold 10 ml polycarbonate tubes and spun in an ultracentrifuge at 25,000×g for 10 min to pellet cell and tissue debris. Supernatants were removed and stored on ice until diluted (1:3 for muscle, 1:5 for liver and 1:20 for kidneys and heart tissues) with a dilution buffer containing 50 mM HEPES, pH 7.5, 1.0 mM DTT, 0.1% Triton X-100, 5 mM DCA, 50 mM NaF, 3% fetal bovine serum and 1 mM leupeptin. The diluted samples (50 μl) were placed in each well of a 24-well plate containing 310 μl of the reaction mixture. A micro-bridge (Hampton Research) was pre-set into each well holding one piece of filter wick pre-soaked with 2 M NaOH. […] Assay plates were incubated further at 37° C. for 45 min. ^14CO2-trapped on 2 M NaOH soaked filter wicks were counted in a liquid scintillation counter. Total protein concentrations in the samples were determined by using BCA protein assay kit (Thermo fisher Scientific, Rockford, Ill.).
# [3] = Pharmacokinetic studies in mice after IP dosing; format: in vivo; settings: 70 mg/kg IP, male C57BL/6J mice, plasma
# Method: Twenty-one male C57BL/6J mice were dosed IP with 70 mg/kg PS-10, 0.2 ml/mouse formulated as 10% DMSO/20% water/70% of 25% (2-hydroxypropyl)-β-cyclodextrin for determination of PS-10 PK. Twenty-one female CD-1 mice were dosed IP with 20 mg/kg PS-8, 0.2 ml/mouse formulated as 5% ethanol and 95% of 0.1 M sodium bicarbonate pH 9.0 for determination of PS-8 PK. Animal (n=3) were sacrificed and whole blood was harvested for each time point. Plasma was processed from whole blood by centrifugation of the ACD treated blood for 10′ at 10,000 rpm in a standard centrifuge. The analytical processing of blood samples and pharmacokinetics studies using LC/MS/MS were as described previously with LC/MS/MS methods optimized for detection of PS-10 and PS-8 (33).
# PDK2 = PDK2 (Homo sapiens, UniProt Q15119); assay: Isothermal titration calorimetry (ITC), binding to PDK2; design: made in house; settings: ITC; read-out: Kd, nM for PDK2
# Method: as §1, with “For crystallization, the protein was subjected to a TEV-protease digestion, and the untagged PDK2 protein was purified on a Superdex 200 column in 20 mM Tris-HCl (pH 8.0), 150 mM NaCl and 5 mM DTT.” left out
# The PDK2 or Hsp90 N-terminal domain protein was dialyzed against one liter of the dialysis buffer containing 50 mM Tris-Cl, pH 7.5, 50 mM KCl, 1 mM MgCl2, and 0.5 mM β-mercaptoethanol. […] All of the ITC data were initially analyzed by the NITPIC program (32) to construct the baseline, followed by curve-fitting in Origin 7 to obtain binding parameters.
# PDK3, sequence (Q15120 whole entry, the tested form may be a part): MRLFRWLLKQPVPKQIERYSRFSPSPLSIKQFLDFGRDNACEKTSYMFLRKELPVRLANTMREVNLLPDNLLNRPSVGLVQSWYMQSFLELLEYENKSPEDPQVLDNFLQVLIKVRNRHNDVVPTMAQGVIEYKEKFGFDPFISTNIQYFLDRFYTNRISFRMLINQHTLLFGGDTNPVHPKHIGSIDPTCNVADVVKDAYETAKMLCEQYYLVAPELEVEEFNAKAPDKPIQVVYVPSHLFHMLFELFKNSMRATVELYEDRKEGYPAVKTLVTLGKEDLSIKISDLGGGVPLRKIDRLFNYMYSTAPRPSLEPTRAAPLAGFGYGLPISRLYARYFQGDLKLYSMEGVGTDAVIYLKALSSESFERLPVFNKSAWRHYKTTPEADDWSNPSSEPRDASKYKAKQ
smiles,measurement,setting,value
"O=S(=O)(c1ccc(O)cc1O)N1Cc2cc(O)cc(O)c2C1 [PS10, 2-((2,4-dihydroxyphenyl)sulfonyl)isoindoline-4,6-diol]",protein level of nuclear mature SREBP-1c,mature SREBP-1c,unchanged
same,cardiac PDC flux in DIO mice,PDC [1],smaller increase
same,IC50,PDK3,21.3 µM
same,"PDC activity in heart, fold over vehicle-treated",PDC [2],11 fold
same,"PDC activity in kidneys, fold enhancement over vehicle-treated",PDC [2],1.4 fold
same,"PDC activity in liver, fold over vehicle-treated",PDC [2],23 fold
same,PDC activity in quadriceps muscle vs vehicle-treated,PDC [2],no difference
same,CL/F,[3],0.741 mL/min
same,AUC(0-t),[3]; mouse,31800 ng·h/mL
same,Cmax,[3]; mouse,32400 ng/mL
same,Tmax,[3]; mouse,0.167 h
same,half-life,"[3]; mouse, read-out: Terminal T1/2",2.68 h
same,Vd/F,"[3]; mouse, read-out: Vz/F",0.172 L
same,Kd,PDK2,239 nM

# Reference: patent publication US10167258B2, “Inhibitors of mitochondrial pyruvate dehydrogenase kinase isoforms 1-4 and uses thereof” (The Board of Regents of the University of Texas System, priority 2013, dated 2019)
